Data from patent US8183230B2, “Antimicrobial preservatives to achieve multi-dose formulation using beta-cyclodextrins for liquid dosage forms” (priority 2004, dated 2012).
“Also recorded” adds a separate entry of the source. Read-outs that look alike come from different tables or passages of the source.

Key:
[1] = for IST: Study A, compound of Formula Ia at 10 mgA/mL
Protocol: Injection site toleration was measured by inspecting the patient for signs of reaction, including erythema (size); skin thickening (size), pain on palpation and edema. Table VI provides a detailed explanation of the scoring system: a score of 0 (no reaction) to 4 (severe reaction) was given for each characteristic and each injection site daily.
Compound of Formula Ia formulations were evaluated for injection site toleration (hereinafter “IST”).
Formulations were tested in groups of 4 dogs comprised of beagles and mongrels. […] Dogs were observed daily for evidence of reaction at the injection site and a score of 0-4 (see Table VI) was given for each of the following parameters: pain on injection, erythema, tissue thickening, pain on palpation and edema. Dogs were observed daily until day 5 (24 hours after the last dose).

[2] = system: Escherichia coli, Pseudomonas aeruginosa, Staphylococcus aureus, Candida albicans, Aspergillus niger; assay: Hybrid USP/Ph. Eur. antimicrobial effectiveness test (AET); format: cell-based; settings: for AET Results Ph. Eur. Criteria A: Study A, compound of Formula Ia at 10 mgA/mL, cells without ✓ print organism (time point); for Ph. Eur. criteria B: leads of Study B; for USP/Ph. Eur. requirements (initial results of preliminary screen): multidose compound of Formula Ia formulation with SBE-CD
Protocol: Preparation of Preserved Formulations. […] Antimicrobial preservatives with optimal activity at a pH outside the nominal formulation value (pH 4.4) were titrated to either 3.5 or 5.0 using 1 N HCl or 1 N NaOH. A stock solution of either 10% or 5% (weight/volume) SBE-CD containing 10 mgA/mL of the compound of Formula Ia citrate was prepared. Preservative was added to the respective formulation on a weight basis.
Antimicrobial Efficacy Testing. A hybrid USP […]/Ph. Eur. 2000 antimicrobial effectiveness test (AET) was performed, as follows: 20 mL of drug product was individually inoculated with 0.1-0.2 mL of bacterial or fungal culture, per USP/Ph. Eur. compendial requirements. The final concentration of organisms in the test sample was between 1×10^5 and 1×10^6 cfu/mL. At initial 6 hr, 24 hr, 7 day, 14 day, and 28 day time intervals, 1 mL of the inoculated product was transferred into 9 mL of a recovery diluent, that was validated to confirm neutralization of the antimicrobial preservative. One mL of the diluted sample was then transferred to a sterile petri dish and combined with 15-20 mL of an agar broth to culture the organisms. Plates were then incubated for 3 to 5 days, upon which colonies were counted. Initial organism contamination was then calculated based on dilution of the initial sample.
Generally, the USP test requirements are less stringent than Ph. Eur. requirements, which typically have an immediate bacteriocidal activity requirement. The Ph. Eur. requirements shown in Table III have either a “Criteria A” or “Criteria B” specification depending on the rate of microorganism reduction, with criteria A requiring an increased bacteriocidal rate. In order to meet the combined hybrid assay, the initial inoculum count of microorganisms needed to be reduced by the amounts listed in Table V.

[3] = Stability measurements (accelerated stability); settings: for ACCEPTABLE STABILITY: 10 mgA/mL compound of Formula Ia
Protocol: Stability Measurements. Potential lead formulations were evaluated under various accelerated stability conditions in order to assess potency and purity of compound of Formula Ia, preservative content and SBE-CD content. For example, in one accelerated stability study, potential lead formulations were placed in stability ovens to measure short-term thermal stability. […] Purity and potency assays to measure compound of Formula Ia, as well as antimicrobial preservatives and SBE-CD content, were performed using validated HPLC methodology. SBE-CD was assayed using GTP 5984.

[4] = system: Escherichia coli, Pseudomonas aeruginosa, Staphylococcus aureus, Candida albicans, Aspergillus niger; settings: as indicated by literature; cited from earlier work
[5] = compound of Formula Ia formulations solubilised with cyclodextrin
[6] = pH: 4.2, SBE-CD: 10%, preservative content 0.2%
[7] = preserved compound of Formula Ia/SBE-CD formulations
[8] = pH: 4.4, SBE-CD: 5%, ethanol 15%
[9] = pH: 4.4, SBE-CD: 10%, content: ethanol 15%, meta-cresol 0.3%, propylene glycol 50%, thimerosal 0.01

## 2-hydroxypropyl-β-cyclodextrin
[1]; [5]
  injection site toleration: acceptable injection site toleration

## O=C(O)c1ccccc1 [Benzoic acid, Benzoic Acid]
[2]; [6]
  AET Results Ph. Eur. Criteria A: c. alb (7 d); also recorded: s. aur (6, 24 hr)
[2]; after 7 days
  reducing the microorganisms: ineffective
[2]
  Ph. Eur. criteria B: met criteria B
[1]; [6]
  IST: Poor
[1]; preserved compound of Formula Ia formulation
  pain on injection: moderate to severe pain on injection
[1]; [7]
  injection site toleration: poor IST results
[3]; over 12 weeks at 70° C. storage
  loss of preservative: no detectable loss
[3]; pH 4.2, 10% SBE-CD
  ACCEPTABLE STABILITY: ✓
[4]
  USP and Ph. Eur. criteria A or B requirements: met both the USP and either Ph. Eur. criteria A or B requirements

## CCO [Ethanol]
[2]; [8]
  AET Results Ph. Eur. Criteria A: a. niger (7 d)
[2]; [9]
  AET Results Ph. Eur. Criteria A: s. aur (6 hr)
[2]
  USP/Ph. Eur. requirements (initial results of preliminary screen): satisfied USP/Ph. Eur. requirements
[1]; [8]
  IST: Poor
[1]; [9]
  IST: Poor
[3]; pH 4.4, 5% SBE-CD
  ACCEPTABLE STABILITY: ✓
[4]
  USP and Ph. Eur. criteria A or B requirements: met both the USP and either Ph. Eur. criteria A or B requirements

## CC(O)CO (stereo not shown) [Propylene glycol]
[2]
  activity against the fungi: ineffective against the fungi
  USP/Ph. Eur. requirements (initial results of preliminary screen): satisfied USP/Ph. Eur. requirements
[2]; with and without SBE-CD
  activity against bacteria: active against bacteria only in the presence of SBE-CD
[4]
  USP and Ph. Eur. criteria A or B requirements: met both the USP and either Ph. Eur. criteria A or B requirements

## C[CH2][Hg][S]c1ccccc1C(=O)[O-].[Na+] [Thimerosal]
[2]
  Ph. Eur. criteria B: met criteria B
  USP/Ph. Eur. requirements (initial results of preliminary screen): satisfied USP/Ph. Eur. requirements
[1]; [9]
  IST: Good
[1]; [7]
  injection site toleration: good injection site toleration
[3]
  stability in the formulation (in words): commercially undesirable
[3]; Study A, pH: 4.4, SBE-CD: 10%, thimerosal 0.01, compound of Formula Ia at 10 mgA/mL
  Stability: 1 wk/70
[3]; after 1 week at 70° C. storage
  preservative remained in the formulation: 30%
[3]; after 6 weeks, 70° C. storage
  loss of preservative: complete loss
[4]
  USP and Ph. Eur. criteria A or B requirements: met both the USP and either Ph. Eur. criteria A or B requirements

## Sulfobutylether-βcyclodextrin [SBE-CD]
[1]; [5]
  injection site toleration: acceptable injection site toleration
